Laboratory results taken from patent US8957045B2, “Nucleoside phosphoramidates” (Gilead Pharmasset LLC, priority 2008, dated 2015).
Read-outs that look alike come from different tables or passages of the source.

Experiments:
[1] = test system: HCV replicon RNA-containing Huh7 cells (clone A cells); test: HCV replicon assay; format: cell-based; details: 4 days incubation, replicon RNA by RT-PCR, EC90 = 1-log10 reduction (ΔCt of 3.3), read-out: CloneA EC90
Protocol: HCV replicon RNA-containing Huh7 cells (clone A cells; Apath, LLC, St. Louis, Mo.) were kept at exponential growth in Dulbecco's modified Eagle's medium (high glucose) containing 10% fetal bovine serum, 4 mM L-glutamine and 1 mM sodium pyruvate, 1× nonessential amino acids, and G418 (1,000 μg/ml). Antiviral assays were performed in the same medium without G418. Cells were seeded in a 96-well plate at 1,500 cells per well, and test compounds were added immediately after seeding. Incubation time 4 days. At the end of the incubation step, total cellular RNA was isolated (RNeasy 96 kit; Qiagen). Replicon RNA and an internal control (TaqMan rRNA control reagents; Applied Biosystems) were amplified in a single-step multiplex RT-PCR protocol as recommended by the manufacturer. The HCV primers and probe were designed with Primer Express software (Applied Biosystems) and covered highly conserved 5′-untranslated region (UTR) sequences (sense primer: 5′-AGCCATGGCGTTAGTA(T)GAGTGT-3′ (SEQ ID NO:1); antisense primer: 5′-TTCCGCAGACCΔCTATGG-3′ (SEQ ID NO:2); and probe: 5′-FAM-[…]-TAMRA-3′ (SEQ ID NO:3)).
To express the antiviral effectiveness of a compound, the threshold RT-PCR cycle of the test compound was subtracted from the average threshold RT-PCR cycle of the no-drug control (ΔCtHCV). A ΔCt of 3.3 equals a 1-log 10 reduction (equal to the 90% effective concentration [EC90]) in replicon RNA levels. The cytotoxicity of the test compound could also be expressed by calculating the ΔCTRNA values. The ΔΔCt specificity parameter could then be introduced (ΔCtHCV-ΔCtRNA), in which the levels of HCV RNA are normalized for the rRNA levels and calibrated against the no-drug control.

| SMILES | EC90 [1] | EC90 ([1]; Hepatitis C virus, Huh-7, 96 h) | melting point |
| --- | --- | --- | --- |
| COC(=O)[C@H](C)NP(=O)(OC[C@H]1O[C@@H](n2cnc3c(N4CCC4)nc(N)nc32)[C@](C)(F)[C@@H]1O)Oc1ccccc1 (stereo partly shown) [Compound 12] | 70 nM |  |  |
| C[C@H](NP(=O)(OC[C@H]1O[C@@H](n2cnc3c(O)nc(N)nc32)[C@](C)(F)[C@@H]1O)Oc1ccccc1)C(=O)OC1CCCC1 (stereo partly drawn) [Compound 14, (2S)-cyclopentyl 2-((((2R,3R,4R,5R)-5-(2-amino-6-hydroxy-9H-purin-9-yl)-4-fluoro-3-hydroxy-4-methyltetrahydrofuran-2-yl)methoxy) (phenoxy)phosphorylamino)propanoate] |  | 130 nM | 133 to 150 °C |
| COc1nc(N)nc2c1ncn2[C@@H]1O[C@H](COP(=O)(N[C@@H](C)C(=O)OC(C)C)Oc2ccccc2)[C@@H](O)[C@@]1(C)F (stereo partly drawn) [Compound 11, (2S)-isopropyl 2-((((2R,3R,4R,5R)-5-(2-amino-6-methoxy-9H-purin-9-yl)-4-fluoro-3-hydroxy-4-methyltetrahydrofuran-2-yl)methoxy) (phenoxy)phosphorylamino)propanoate] |  | 20 nM |  |
